Entries after “also recorded” stand apart in the source; their conditions may differ.
Tests used:
[1] = Prediction of in vivo human PK parameters from hepatocyte clearance; type: in vitro ADME; details: for Classification (extraction type) / Extraction ratio EH: predicted; for Predicted Cl, CLH: predicted from hepatocyte Clint, fu = 1
[2] = system: H9N2 IAV strain A/quail/Shantou/782/00; type: cell-based, influenza A virus; details: MDCK-II cells, MOI 0.01, 50 µM, 24 h
α-1 acidic glycoprotein = system: α-1 acidic glycoprotein; design: method as in PMID 37865989; details: cited from earlier work
[3] = system: cynomolgus monkey hepatocytes; design: method as in PMID 31391268; details: cited from earlier work
CYP1A2 = target: T1, CYP1A2 (Homo sapiens, UniProt P05177); test: Fluorometric CYP1A2 activity assay in human hepatic microsomes; details: human liver microsomes, protease inhibitors at 50 µM, 15 min 37 °C
T1 sequence (P05177 1-516): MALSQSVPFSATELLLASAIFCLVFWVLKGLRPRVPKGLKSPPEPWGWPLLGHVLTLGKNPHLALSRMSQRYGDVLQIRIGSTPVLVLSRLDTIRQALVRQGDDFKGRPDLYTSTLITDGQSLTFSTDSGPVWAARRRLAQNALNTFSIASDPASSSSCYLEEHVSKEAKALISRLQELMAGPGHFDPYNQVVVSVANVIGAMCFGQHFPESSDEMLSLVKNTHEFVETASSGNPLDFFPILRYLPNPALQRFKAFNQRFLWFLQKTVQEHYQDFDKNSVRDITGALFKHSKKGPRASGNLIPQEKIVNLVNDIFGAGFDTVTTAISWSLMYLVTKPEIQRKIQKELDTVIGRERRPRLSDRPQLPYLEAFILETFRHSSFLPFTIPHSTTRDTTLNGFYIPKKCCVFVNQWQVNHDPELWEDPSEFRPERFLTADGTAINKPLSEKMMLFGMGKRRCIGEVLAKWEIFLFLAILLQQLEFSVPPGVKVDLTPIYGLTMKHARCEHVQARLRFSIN

CYP2C9 = CYP2C9 (Homo sapiens, UniProt P11712); test: Fluorometric CYP2C9 activity assay in human hepatic microsomes; details: human liver microsomes, protease inhibitors at 50 µM, 15 min 37 °C
CYP2C9, sequence (P11712 whole entry): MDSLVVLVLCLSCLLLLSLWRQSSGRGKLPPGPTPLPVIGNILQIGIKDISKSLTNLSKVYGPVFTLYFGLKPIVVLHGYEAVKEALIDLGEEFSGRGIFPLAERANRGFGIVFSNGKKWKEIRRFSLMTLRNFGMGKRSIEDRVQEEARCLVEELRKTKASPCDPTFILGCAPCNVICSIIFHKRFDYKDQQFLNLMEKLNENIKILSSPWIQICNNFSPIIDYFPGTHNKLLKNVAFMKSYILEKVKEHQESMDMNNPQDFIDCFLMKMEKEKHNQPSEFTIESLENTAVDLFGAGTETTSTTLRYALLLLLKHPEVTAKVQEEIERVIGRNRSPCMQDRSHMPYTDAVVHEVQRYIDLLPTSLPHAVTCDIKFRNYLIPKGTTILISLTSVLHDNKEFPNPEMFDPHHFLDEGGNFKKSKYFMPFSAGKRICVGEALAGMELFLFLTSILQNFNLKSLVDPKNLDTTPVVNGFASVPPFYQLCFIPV

CYP2D6 = CYP2D6 (Homo sapiens, UniProt P10635); test: Fluorometric CYP2D6 activity assay in human hepatic microsomes; details: human liver microsomes, protease inhibitors at 50 µM, 15 min 37 °C
CYP2D6, sequence (P10635 whole entry): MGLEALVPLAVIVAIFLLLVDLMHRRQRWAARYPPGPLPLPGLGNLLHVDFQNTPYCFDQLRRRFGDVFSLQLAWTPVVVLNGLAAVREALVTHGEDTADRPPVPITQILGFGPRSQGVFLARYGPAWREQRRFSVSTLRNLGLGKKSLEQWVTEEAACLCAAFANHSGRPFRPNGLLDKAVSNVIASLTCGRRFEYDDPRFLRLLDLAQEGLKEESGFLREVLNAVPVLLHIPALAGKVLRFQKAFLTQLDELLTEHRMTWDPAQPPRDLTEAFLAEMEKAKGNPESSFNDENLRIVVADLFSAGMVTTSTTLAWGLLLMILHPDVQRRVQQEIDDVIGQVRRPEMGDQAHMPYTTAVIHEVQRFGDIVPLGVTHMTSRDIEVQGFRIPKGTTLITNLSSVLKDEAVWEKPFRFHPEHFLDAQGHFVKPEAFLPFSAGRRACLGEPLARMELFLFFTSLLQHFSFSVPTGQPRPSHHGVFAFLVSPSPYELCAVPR

CYP3A4 = CYP3A4 (Homo sapiens, UniProt P08684); test: Fluorometric CYP3A4 activity assay in human hepatic microsomes; details: human liver microsomes, 10, 25 and 50 µM
CYP3A4, sequence (P08684 whole entry): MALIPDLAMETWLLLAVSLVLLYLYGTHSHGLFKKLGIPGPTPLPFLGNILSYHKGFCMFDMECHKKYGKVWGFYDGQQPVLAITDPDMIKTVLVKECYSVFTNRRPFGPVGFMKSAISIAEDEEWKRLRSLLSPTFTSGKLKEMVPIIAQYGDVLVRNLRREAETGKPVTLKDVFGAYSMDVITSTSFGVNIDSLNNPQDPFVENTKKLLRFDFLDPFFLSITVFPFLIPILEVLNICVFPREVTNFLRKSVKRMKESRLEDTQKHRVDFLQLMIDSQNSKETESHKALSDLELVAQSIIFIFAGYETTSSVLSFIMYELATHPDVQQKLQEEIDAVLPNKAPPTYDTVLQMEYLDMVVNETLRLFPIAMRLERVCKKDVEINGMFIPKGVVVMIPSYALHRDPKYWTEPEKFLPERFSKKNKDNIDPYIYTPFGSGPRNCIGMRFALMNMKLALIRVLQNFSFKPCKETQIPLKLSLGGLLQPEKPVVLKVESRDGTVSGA

CYP2C19 = CYP2C19 (Homo sapiens, UniProt P33261); test: Fluorometric CYP2C19 activity assay in human hepatic microsomes; details: human liver microsomes, protease inhibitors at 50 µM, 15 min 37 °C
CYP2C19, sequence (P33261 whole entry): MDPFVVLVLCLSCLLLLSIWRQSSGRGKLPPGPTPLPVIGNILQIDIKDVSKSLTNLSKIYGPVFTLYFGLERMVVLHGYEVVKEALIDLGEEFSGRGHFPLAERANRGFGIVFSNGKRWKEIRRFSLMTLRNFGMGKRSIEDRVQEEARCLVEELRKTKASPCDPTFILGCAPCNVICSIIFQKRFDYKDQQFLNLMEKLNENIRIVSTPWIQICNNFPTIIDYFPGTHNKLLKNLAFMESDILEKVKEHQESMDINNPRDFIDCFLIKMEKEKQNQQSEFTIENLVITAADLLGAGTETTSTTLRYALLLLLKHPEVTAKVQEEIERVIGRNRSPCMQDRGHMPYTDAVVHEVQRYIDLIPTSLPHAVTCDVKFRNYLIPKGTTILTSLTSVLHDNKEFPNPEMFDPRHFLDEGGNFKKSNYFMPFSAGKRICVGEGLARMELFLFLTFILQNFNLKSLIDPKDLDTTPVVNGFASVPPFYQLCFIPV

[4] = Depletion of inhibitors in human primary hepatocyte suspension (LC-MS/MS); details: human, cryopreserved primary human hepatocytes in suspension; for CLint scaled at 10 µM: intrinsic clearance from primary human hepatocytes scaled to whole liver/body weight
[5] = system: human primary hepatocytes; test: as above; details: primary human hepatocytes, 10 µM; for Parent compound retained at the 120-min sampling point: % of 0-min concentration, mean ± S.E.M.; for Sampling interval at which significant depletion was first observed: sampling 0-120 min
SARS-CoV-2 = system: SARS-CoV-2; design: method as in PMID 32703818; details: Calu-3 cells, 50 μM, 24 h p.i.; cited from earlier work
Calu-3 cells = system: Calu-3 cells; design: method as in PMID 32703818; details: 50 μM; cited from earlier work
H1N1 IAV = system: H1N1 IAV; design: method as in PMID 23527573; details: Calu-3 cells; cited from earlier work
H3N2 IAV = system: H3N2 IAV; design: method as in PMID 23527573; details: Calu-3 cells; cited from earlier work
H1N1 PR8 = system: H1N1 PR8; design: method as in PMID 23365447; details: Calu-3 cells; cited from earlier work
[6] = system: primary human hepatocytes; details: 50 μM; cited from earlier work

COc1ccc(-c2cccc(S(=O)(=O)N[C@@H](Cc3cccc(C(=N)N)c3)C(=O)N3CCC(N)CC3)c2)c(OC)c1 [MI-472]
Classification (extraction type) [1]: Intermediate
Extraction ratio EH [1]: 0.36
Predicted Cl, CLH [1]: 7.40
H9N2 viral spread / formation of viral foci [2]: only slightly reduced formation of viral foci
Interaction with α-1 acidic glycoprotein (α-1 acidic glycoprotein): complex formation
Treatment time after which significant conversion was seen [3]: 60 to 120 min
Inhibition of CYP1A2 activity (CYP1A2): No significant CYP inhibitory potential
Inhibition of CYP2C9 activity (CYP2C9): No significant CYP inhibitory potential
Inhibition of CYP2D6 activity (CYP2D6): No significant CYP inhibitory potential
Effect on CYP3A4 enzyme activity (CYP3A4): significant inhibitory effect
Inhibition of CYP2C19 activity (CYP2C19): No significant CYP inhibitory potential
half-life at 10 µM [4]: 3.84 h
CLint scaled at 10 µM [4]: 19.8 mL/min/kg
Parent compound retained at the 120-min sampling point [5]: 65.1 ± 5.5%
Sampling interval at which significant depletion was first observed [5]: 30 min

N=C(N)c1cccc(C[C@H](NS(=O)(=O)c2cccc(-c3ccc(Cl)cc3Cl)c2)C(=O)N2CCC(CCN)CC2)c1.O=C(O)C(F)(F)F.O=C(O)C(F)(F)F [MI-432, reference compound]
Reduction of SARS-CoV-2 viral titers compared to control samples (SARS-CoV-2): 75 fold
Influence on Calu-3 cell viability (Calu-3 cells): without influencing Calu-3 cell viabilitiy significantly
Inhibition of proteolytic activation and replication of H1N1 IAV (H1N1 IAV): notable efficacy
Inhibition of proteolytic activation and replication of H3N2 IAV (H3N2 IAV): notable efficacy

N=C(N)c1cccc(C[C@H](NS(=O)(=O)c2cccc(NC(=O)CCN)c2)C(=O)N2CCC(CCN)CC2)c1 [MI-21]
Classification (extraction type) [1]: Intermediate
Extraction ratio EH [1]: 0.53
Predicted Cl, CLH [1]: 10.92
Inhibition of replication of H1N1 PR8 (H1N1 PR8): promising inhibition
Cell toxicity [6]: no cell toxicity
Inhibition of CYP1A2 activity (CYP1A2): No significant CYP inhibitory potential
Inhibition of CYP2C9 activity (CYP2C9): No significant CYP inhibitory potential
Inhibition of CYP2D6 activity (CYP2D6): No significant CYP inhibitory potential
Effect on CYP3A4 enzyme activity (CYP3A4): did not cause significant reduction; also recorded: did not significantly suppress
Inhibition of CYP2C19 activity (CYP2C19): No significant CYP inhibitory potential
half-life at 10 µM [4]: 0.52 h
CLint scaled at 10 µM [4]: 147 mL/min/kg
Parent compound retained at the 120-min sampling point [5]: 16.6 ± 1.6%
Sampling interval at which significant depletion was first observed [5]: 30 min
